# Assay results reported in patent US20150111852A1, “1-Di(sec-butyl)-phosphinoyl-pentane (dapa-2-5) as a topical agent” (priority 2013, published 2015).
# Legend:
# capsaicin-induced cough = experiment: Guinea pig cough model, capsaicin mist; format: in vivo; conditions: capsaicin 0.1 mM mist, identical design
# Description: This study was repeated with an identical design, but using capsaicin 0.1 mM mist as the stimulus.
# [1] = system: isolated TRPM8 knock-out mouse vagus; experiment: Capsaicin-induced depolarization of isolated vagus nerve, TRPM8 knock-out; conditions: 1 mg/mL, capsaicin 1 μM, TRPM8 KO, read-out: per cent inhibition of capsaicin-induced depolarization
# Description: To examine the ability of DAPA-2-5 to suppress sensory discomfort, it was tested in an animal model developed at the Imperial College, London, U.K. [Birrell et al. TRPA1 agonists evoke coughing in guinea pig and human volunteers. Amer. J. Respiratory and Critical Care Medicine 180, 1042-7, 2009; Patel et al., Inhibition of guinea-pig and human sensory nerve activity and the cough reflex in guinea-pigs by cannabinoid (CB2) receptor activation. British J. Pharmacol. 140, 261-8 2003]. In this in vitro assay, segments of the vagus nerve are placed on a platform and the electrical activity is recorded after topical application of capsaicin. Capsaicin is a known irritant that elicits pain when it is applied to the skin and it will depolarize the isolated vagus. The ability of substances to inhibit this capsaicin-induced depolarization is measured.
# Briefly, segments of vagus nerve, caudal to the nodose ganglion, were removed from mice with fine forceps and segments placed in oxygenated Krebs solution and bubbled with 95% O2/5% CO2. The desheathed nerve trunk was mounted in a ‘grease-gap’ recording chamber and constantly superfused with Krebs solution with a flow rate of approximately 2 mL/min, and the electrical activity of the nerve monitored with electrodes. The temperature of the perfusate was kept constant at 37° C. by a water bath. […]
# ASIC3 (acid-sensing) = target: T1, ASIC3 (acid-sensing) (Homo sapiens, UniProt Q9UHC3); experiment: Patch-clamp in transfected cells, ASIC3; format: cell-based; conditions: DAPA-2-5 at 5 μM; positive control amiloride
# T1 construct: expressed in transfected cells
# T1 sequence (Q9UHC3 1-531): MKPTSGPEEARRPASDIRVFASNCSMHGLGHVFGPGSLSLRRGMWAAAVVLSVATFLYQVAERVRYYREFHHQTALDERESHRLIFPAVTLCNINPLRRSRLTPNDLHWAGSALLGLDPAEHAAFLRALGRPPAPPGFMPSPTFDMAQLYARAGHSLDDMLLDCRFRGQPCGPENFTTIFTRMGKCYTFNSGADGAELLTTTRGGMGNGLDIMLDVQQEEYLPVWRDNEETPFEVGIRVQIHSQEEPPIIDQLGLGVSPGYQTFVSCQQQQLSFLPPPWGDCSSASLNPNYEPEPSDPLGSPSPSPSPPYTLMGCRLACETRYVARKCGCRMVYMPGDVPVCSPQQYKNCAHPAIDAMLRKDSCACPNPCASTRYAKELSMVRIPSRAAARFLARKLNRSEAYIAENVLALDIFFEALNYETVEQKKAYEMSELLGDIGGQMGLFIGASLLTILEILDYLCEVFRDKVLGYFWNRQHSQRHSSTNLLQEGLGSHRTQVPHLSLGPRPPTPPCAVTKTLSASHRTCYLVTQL
# [2] = HPLC content of DAPA-2-5 recovered from disintegrated prototype tablets; format: physicochemical
# Description: A high pressure liquid chromatography [HPLC] method was developed for analysis of DAPA-2-5 in aqueous solution. The chromatographic conditions were: Column: Waters XTerra RP18, 150×4.6 mm, 3.5 μm, Column temperature: 40° C., Mobile phase : 0.1% Tetrabutyl ammonium and Tri fluro acetic acid in 900mL water and 100 mL Acetonitrile, Flow: 1.0 mUmin, Diluent : Water, Wavelength: 226 nm, Injection Volume: 100 μL, Run time: 10 min, Standard Preparation: 0.75 mg/mL of DAPA-2-5 in water. Sample Preparation: Equivalent to 0.75 mg/mL of DAPA-2-5 in water. Prototype tablets containing DAPA-2-5 were disintegrated and the content of DAPA-2-5 measured. […] It is likely that the non-eluted DAPA-2-5 remains tightly bound to sites on the Neusilin US2.
# [3] = system: citric acid-induced cough; experiment: Guinea pig cough model, citric acid mist; format: in vivo; conditions: 2 mg/mL in saline, 75 μL per animal, 1 M citric acid mist, 10 min observation period
# Description: Male specific pathogen—free guinea pigs about one month of age, weighing 250 to 300 g, were obtained from the medical experimental animal center of Guang Dong Province, China, and housed in rooms maintained at 22±2° C. and 55±15% humidity with a 12-hr light cycle and 20 air changes per hr. The experimental procedures were approved by the Institutional Animal Care and Use Committee. Guinea pigs were placed in a transparent plastic 2 L plethysmography chamber equipped with a bias flow regulator that withdrew air at a rate of 2.5 L/min (Buxco, Wilmington, N.C., USA). […] The frequency was detected as a transient change in airflow in the chamber and the signal recorded via a pressure transducer and computer. Additionally, the audio-amplified count was also recorded electronically. Coughs were counted for the 10 min exposure period. The experiment was visually monitored by the investigator. The baseline frequency of coughing was recorded for all animals (N=20) and 7 days later, animals were anesthetized with diethyl ether. […] Ten min after injection, the guinea pigs were exposed to the citric acid mist and the number of coughs recorded.
# mouth and throat = experiment: Sensory activity of ODT-C on volunteers (double-blind, modified ASHRAE scale); format: in vivo, human; conditions: doses higher than 1.5 mg
# [4] = target: T2, hNav1.7 (sodium channels) (Homo sapiens, UniProt Q15858); experiment: Patch-clamp in transfected cells, hNav1.7; format: cell-based; conditions: DAPA-2-5 at 5 μM; positive control lidocaine
# T2 construct: expressed in transfected cells
# T2 sequence (Q15858 whole entry): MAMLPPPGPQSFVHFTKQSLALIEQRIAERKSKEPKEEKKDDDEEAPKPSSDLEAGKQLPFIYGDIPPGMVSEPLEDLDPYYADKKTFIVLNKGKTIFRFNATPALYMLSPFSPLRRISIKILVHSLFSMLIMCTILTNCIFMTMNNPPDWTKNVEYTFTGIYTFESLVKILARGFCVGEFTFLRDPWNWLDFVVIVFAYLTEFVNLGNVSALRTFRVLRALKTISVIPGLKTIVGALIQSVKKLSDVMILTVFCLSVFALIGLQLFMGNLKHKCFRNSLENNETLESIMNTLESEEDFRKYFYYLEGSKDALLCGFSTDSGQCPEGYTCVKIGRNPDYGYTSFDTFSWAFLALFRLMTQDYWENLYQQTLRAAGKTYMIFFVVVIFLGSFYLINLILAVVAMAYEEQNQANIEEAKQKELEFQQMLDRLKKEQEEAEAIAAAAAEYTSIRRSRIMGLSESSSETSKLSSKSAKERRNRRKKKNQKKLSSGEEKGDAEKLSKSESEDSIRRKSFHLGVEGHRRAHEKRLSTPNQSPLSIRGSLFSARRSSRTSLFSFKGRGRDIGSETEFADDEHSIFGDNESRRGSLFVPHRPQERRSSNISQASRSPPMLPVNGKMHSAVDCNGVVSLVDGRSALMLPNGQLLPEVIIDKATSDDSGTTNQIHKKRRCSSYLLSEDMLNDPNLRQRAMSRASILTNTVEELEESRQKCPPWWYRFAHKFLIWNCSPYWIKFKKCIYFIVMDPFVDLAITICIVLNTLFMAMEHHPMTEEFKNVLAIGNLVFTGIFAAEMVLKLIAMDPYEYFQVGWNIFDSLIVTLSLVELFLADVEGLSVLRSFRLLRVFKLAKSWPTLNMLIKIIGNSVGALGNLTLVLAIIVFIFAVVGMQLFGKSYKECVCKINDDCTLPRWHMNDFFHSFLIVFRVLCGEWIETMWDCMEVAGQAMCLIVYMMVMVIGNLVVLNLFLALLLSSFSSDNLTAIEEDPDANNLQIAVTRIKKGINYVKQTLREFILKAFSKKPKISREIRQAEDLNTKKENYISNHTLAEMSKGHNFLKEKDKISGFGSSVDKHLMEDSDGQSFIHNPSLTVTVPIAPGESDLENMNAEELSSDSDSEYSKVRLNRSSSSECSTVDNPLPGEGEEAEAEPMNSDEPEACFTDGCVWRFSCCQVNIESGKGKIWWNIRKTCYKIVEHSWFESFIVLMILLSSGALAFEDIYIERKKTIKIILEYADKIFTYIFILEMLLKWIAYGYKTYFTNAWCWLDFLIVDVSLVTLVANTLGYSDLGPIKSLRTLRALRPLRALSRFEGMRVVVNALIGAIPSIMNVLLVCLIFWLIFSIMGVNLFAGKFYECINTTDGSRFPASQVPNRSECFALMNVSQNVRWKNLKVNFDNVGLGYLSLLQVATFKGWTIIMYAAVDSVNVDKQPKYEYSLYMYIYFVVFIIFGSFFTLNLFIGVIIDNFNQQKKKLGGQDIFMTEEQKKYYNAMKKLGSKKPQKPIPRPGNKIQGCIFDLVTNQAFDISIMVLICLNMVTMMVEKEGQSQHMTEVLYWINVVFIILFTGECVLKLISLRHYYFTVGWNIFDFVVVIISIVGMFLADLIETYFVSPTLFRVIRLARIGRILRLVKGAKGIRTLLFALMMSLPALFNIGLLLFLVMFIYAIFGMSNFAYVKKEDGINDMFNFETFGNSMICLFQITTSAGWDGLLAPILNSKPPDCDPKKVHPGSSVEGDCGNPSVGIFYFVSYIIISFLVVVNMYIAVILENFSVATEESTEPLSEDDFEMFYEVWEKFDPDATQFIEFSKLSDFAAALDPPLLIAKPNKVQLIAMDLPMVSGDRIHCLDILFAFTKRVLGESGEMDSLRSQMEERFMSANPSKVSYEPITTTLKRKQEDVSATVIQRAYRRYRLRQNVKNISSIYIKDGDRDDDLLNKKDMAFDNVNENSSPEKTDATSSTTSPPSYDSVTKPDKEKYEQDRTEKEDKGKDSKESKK
structure (smiles),measurement,setting,value
"CCCCCP(=O)(C(C)CC)C(C)CC (stereo not shown) [DAPA-2-5, 1-Di(sec-butyl)-phosphinoyl-pentane]",effect on capsaicin-induced coughing,capsaicin-induced cough,inhibited the capsaiscin-induced coughing
same,inhibition at 1000 µg/mL,[1],~0%
same,"agonist or antagonist activity, ASIC3",ASIC3 (acid-sensing),No agonist or antagonist activities
same,DAPA-2-5 recovered from the aqueous phase,[2],86±2%
same,cough frequency,[3],6.7±1.6 coughs
same,ODT-C test results at higher doses,mouth and throat,higher than 1.5 mg “penetrating cold” sensations.
same,"agonist or antagonist activity, hNav1.7",[4],No agonist or antagonist activities
